Several values for one entry are separate records, joined by “and”; a condition that tells them apart may be missing. Equal entries are not always repeated. Where two headings read alike, the source gives them in different places.
Assays:
[1] = system: cGAS activity in dsDNA-stimulated RAW macrophages; experiment: Cellular luciferase assay, interferon-responsive reporter in dsDNA-stimulated RAW macrophages; assay type: cell-based; conditions: Mus musculus, Macrophage, dsDNA-activated RAW cells
Description: The sequence and annealing conditions of the dsDNA used is described above. Typically, 0.4 µg or 0.6 µg of dsDNA was used to stimulate RAW-Lucia ISG-KO-TREX1/ISG-KO-cGAS or RAW-Lucia ISG cells, respectively, which equated to 90% of maximal luciferase activity observed. dsDNA stimulation of RAW macrophages and subsequent luciferase measurements were performed with or without the addition of small molecules at indicated concentrations in each figure, or with DMSO as vehicle control. For the dose curve experiments, serial dilutions of inhibitors were applied to 6.7 × 10^5 cells, plated in 24-well dishes, and co-stimulated with 0.4 µg of dsDNA. In subsequent experiments using inhibitors in RAW cells, the small molecules were used at concentrations representing the derived EC75 values, while co-stimulated with one of the following: 0.4 µg dsDNA, 50 nM 5′ppp-HP20 hairpin RNA (a kind gift from Dr Anna Pyle, Yale University; sequence located in Supplementary Table 5), 10 µM cGAMP, or 100 U ml^−1 murine recombinant Ifnb (R&D Systems). dsDNA was transfected using Lipofectamine LTX. 5′ppp-HP20 RNA was transfected using Lipofectamine 2000. Cells were harvested 24 h post-transfection, washed with PBS, and lysed in 1× Luciferase Cell Lysis Buffer (Pierce).
The minimum numbers of biological and technical replicates for the luciferase assays were two and three, respectively. Analysis of luminescence values were evaluated for outliers (one standard deviation above and below the mean) for each biological replicate, and the resulting means were used to generate graphs in GraphPad Prism (v. 7.0c); where applicable, an unpaired t-test with Welch’s correction was used to compare the results of each individual compound to dsDNA or other stimulant. The experimental variances observed within control samples (untreated or vehicle) and treated samples were similar.

mouse cGAS = molecular target: T1, mouse cGAS (Mus musculus, UniProt Q8C6L5); experiment: RapidFire mass spectrometry (RF-MS) cGAS enzymatic assay, cGAMP product formation; assay type: biochemical; conditions: for IC50: read-out: IC50
T1 construct: recombinant full-length mouse cGAS in reaction buffer; His6-SUMO (N, cleaved yes); made in house; host or cells: E. coli BL21(DE3) RIL
T1 sequence (Q8C6L5 whole entry): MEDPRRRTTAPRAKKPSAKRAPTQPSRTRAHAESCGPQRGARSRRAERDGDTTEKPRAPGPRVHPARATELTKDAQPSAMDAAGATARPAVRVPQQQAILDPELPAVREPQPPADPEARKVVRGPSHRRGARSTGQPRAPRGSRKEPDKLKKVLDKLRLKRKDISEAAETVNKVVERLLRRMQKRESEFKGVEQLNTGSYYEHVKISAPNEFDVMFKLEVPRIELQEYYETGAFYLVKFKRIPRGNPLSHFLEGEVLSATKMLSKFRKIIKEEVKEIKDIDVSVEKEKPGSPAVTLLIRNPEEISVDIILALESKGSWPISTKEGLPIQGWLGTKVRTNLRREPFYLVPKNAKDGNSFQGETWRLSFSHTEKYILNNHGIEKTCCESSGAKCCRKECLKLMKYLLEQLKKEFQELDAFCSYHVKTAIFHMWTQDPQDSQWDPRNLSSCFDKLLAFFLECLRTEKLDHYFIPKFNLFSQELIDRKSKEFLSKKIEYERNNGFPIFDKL
In short: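 Reactions were stopped with 0.5% formic acid, then ATP, GTP and cGAMP were separated by solid-phase extraction on graphitic carbon and detected by negative-ion MS. Product formation (%) = AUCcGAMP×100/(AUCcGAMP + ½AUCATP + ½AUCGTP). Percent inhibition was normalized to positive and negative controls.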

cGAS/dsDNA complex = molecular target: T2, cGAS/dsDNA complex (Mus musculus, UniProt Q8C6L5); experiment: Isothermal titration calorimetry, compound titrated into cGAS/dsDNA complex; assay type: binding
T2 construct: full-length (for high-throughput screening) and residues 147–507 (for structural study) of cGAS; His6-SUMO (N, cleaved yes); made in house; host or cells: E. coli BL21(DE3) RIL
T2 sequence (Q8C6L5 147-507, one chain of several): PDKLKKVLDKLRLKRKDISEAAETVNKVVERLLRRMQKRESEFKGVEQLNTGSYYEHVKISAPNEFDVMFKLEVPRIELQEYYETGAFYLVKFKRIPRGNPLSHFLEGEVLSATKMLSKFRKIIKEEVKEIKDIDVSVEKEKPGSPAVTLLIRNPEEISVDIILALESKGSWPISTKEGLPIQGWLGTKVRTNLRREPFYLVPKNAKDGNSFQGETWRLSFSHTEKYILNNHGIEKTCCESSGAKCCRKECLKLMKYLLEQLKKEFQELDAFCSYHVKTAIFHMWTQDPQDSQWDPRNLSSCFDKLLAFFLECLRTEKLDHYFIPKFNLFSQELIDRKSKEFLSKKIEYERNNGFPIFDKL
Description: ITC measurements were performed at 25 °C using a MicroCal auto-iTC200 calorimeter (MicroCal, LLC). Purified truncated mouse cGAS was dialyzed against 40 mM HEPES buffer (pH 7.5) and 300 mM NaCl for 24 h at 4 °C. Dialysis led to some precipitation, which were removed through centrifugation followed by collection of the supernatant. The concentration of the protein in supernatant was measured using Pierce® BCA protein assay. The protein was flash frozen in liquid N2 and stored at −80 °C. For the ITC assay, the dialyzed protein was prediluted to 20 µM in the dialysis buffer and diluted to a final concentration of 10 µM in a final buffer containing 40 mM HEPES, 1% DMSO, 150 mM NaCl, 0.01% Tween-20 and + /− dsDNA 10 µM and + /− ATP or GTP 1 mM. Then, 2 μl RU.365 100 µM, dissolved in the buffer aforementioned, were injected into 0.2 ml of protein in the chamber every 150 s. Data for raw ITC and thermodynamic curves, each from one experiment, were downloaded after analysis using Affinimeter software and plotted using GraphPad Prism (7.01). The software calculates error bars as an indication of the contribution of the raw data noise that is determined from the integral of the standard deviation of the baseline during the injection.

[2] = Supplementary Table 3, analogs more potent than RU166365
[3] = cGAS in presence of dsDNA, no ATP/GTP

Row | IC50 [1] | IC50 (mouse cGAS; [2]) | T*ΔS (cGAS/dsDNA complex; cGAS in presence of dsDNA) | rM (cGAS/dsDNA complex; cGAS in presence of dsDNA) | ΔG (cGAS/dsDNA complex; cGAS in presence of dsDNA) | ΔH (cGAS/dsDNA complex; cGAS in presence of dsDNA) | Kd (cGAS/dsDNA complex; [3]) | Compound | further results
1 | 4980 nM | 1890 nM | -4.504 kcal/mol | 0.9075 | -9.813 kcal/mol | -14.32 kcal/mol | 64.1 nM and 64 nM | Cc1nn(-c2nc3ccccc3[nH]2)c(O)c1C1OC(=O)c2ccccc21 (stereo not shown) [RU166365] | IC50 (mouse cGAS; Supplementary Table 2, batch of compounds stored in the screening library): 520 nM; inhibition at 12.5 µM (mouse cGAS; Supplementary Table 2, compound 12.5 µM, read-out: % inhibition at 12.5 µM): 99%; Kd (cGAS/dsDNA complex; cGAS/dsDNA + 1 mM ATP): 104 nM; Kd (cGAS/dsDNA complex; cGAS/dsDNA + 1 mM GTP): 298 nM; T*ΔS (cGAS/dsDNA complex; cGAS/dsDNA + ATP 1 mM): -2.493 kcal/mol; rM (cGAS/dsDNA complex; cGAS/dsDNA + ATP 1 mM): 0.9605; ΔG (cGAS/dsDNA complex; cGAS/dsDNA + ATP 1 mM): -9.524 kcal/mol; ΔH (cGAS/dsDNA complex; cGAS/dsDNA + ATP 1 mM): -12.02 kcal/mol; T*ΔS (cGAS/dsDNA complex; cGAS/dsDNA + GTP 1 mM): -3.668 kcal/mol; rM (cGAS/dsDNA complex; cGAS/dsDNA + GTP 1 mM): 0.9257; ΔG (cGAS/dsDNA complex; cGAS/dsDNA + GTP 1 mM): -8.902 kcal/mol; ΔH (cGAS/dsDNA complex; cGAS/dsDNA + GTP 1 mM): -12.57 kcal/mol
2 | 700 nM | 110 nM | -6.134 kcal/mol | 0.8071 | -10.15 kcal/mol | -16.29 kcal/mol | 36.2 nM | Cc1nn(-c2nc3ccc(Cl)c(Cl)c3[nH]2)c(O)c1C1OC(=O)c2ccccc21 (stereo not shown) [RU320521, 3-[1-(6,7-dichloro-1H-benzimidazol-2-yl)-5-hydroxy-3-methyl-pyrazol-4-yl]-3H-isobenzofuran-1-one] | effect of structural modification on cGAS inhibitory potency (mouse cGAS; compared with RU.365): increased inhibitory potency; improvement in potency (mouse cGAS; relative to RU.365): 17 fold

Reference: article PMC5622107, “Small molecule inhibition of cGAS reduces interferon expression in primary macrophages from autoimmune mice” (Nature Communications, 2017)
